For orientation: MIC means the lowest concentration found to suppress growth. Read a high MIC as weaker potency.

Experiment [1] deals with Enterococcus faecalis. In words: Bactericidal activity against 5 X 10^8 CFU/ml Enterococcus faecalis JH2-2 harboring deletion at AltA, AltB and AltC gene at 2 ug/ml after 3 hrs by time kill analysis. It counts as functional.
For experiment [2], the system named is Enterococcus faecalis. Put plainly: Antibacterial activity against Enterococcus faecalis JH2-2 harboring deletion at AltA, AltB and AltC gene by CLSI method. It counts as functional.
The subject of experiment [3] is Enterococcus faecalis. In words: Bactericidal activity against 5 X 10^8 CFU/ml Enterococcus faecalis JH2-2 at 2 ug/ml after 6 hrs by time kill analysis. It counts as functional.
The test system of experiment [4] is Enterococcus faecalis. Put plainly: Antibacterial activity against Enterococcus faecalis JH2-2 by CLSI method. It counts as functional.
In experiment [5] the test system is Enterococcus faecalis. Put plainly: Bactericidal activity against 5 X 10^6 CFU/ml Enterococcus faecalis JH2-2 harboring deletion at AltA, AltB and AltC gene at 2 ug/ml after 6 hrs by time kill analysis. It counts as functional.
Experiment [6] concerns Enterococcus faecalis. Put plainly: Bactericidal activity against 5 X 10^6 CFU/ml Enterococcus faecalis JH2-2 at 2 ug/ml after 3 hrs by time kill analysis. It counts as functional.
For experiment [7], the system named is Enterococcus faecalis. In words: Bactericidal activity against 5 X 10^8 CFU/ml Enterococcus faecalis JH2-2 harboring deletion at AltA, AltB and AltC gene at 2 ug/ml after 24 hrs by time kill analysis. It counts as functional.
For experiment [8], the system named is Enterococcus faecalis. Put plainly: Bactericidal activity against 5 X 10^6 CFU/ml Enterococcus faecalis JH2-2 harboring deletion at AltA, AltB and AltC gene at 2 ug/ml after 24 hrs by time kill analysis. It counts as functional.
The test system of experiment [9] is Enterococcus faecalis. In words: Antibacterial activity against Enterococcus faecalis JH2-2 assessed as induction of membrane permeabilization at 2 ug/ml after 3 hrs by propidium iodide and Syto9 staining based confocal microscopic analysis. It counts as functional, organism-based.
The test system of experiment [10] is Enterococcus faecalis. In words: Bactericidal activity against 5 X 10^8 CFU/ml Enterococcus faecalis JH2-2 harboring deletion at AltA, AltB and AltC gene at 2 ug/ml after 6 hrs by time kill analysis. It counts as functional.
Experiment [11] deals with Enterococcus faecalis. Put plainly: Bactericidal activity against 5 X 10^8 CFU/ml Enterococcus faecalis JH2-2 infected in rabbit assessed as bacterial load per gram of vegetation at 50 mg/kg, im administered three times a day starting 48 hrs post-infection measured after 24 hrs by time kill analysis (reference value: 9.29+- 0.83 log10 CFU/g). It counts as functional. As to conditions: route intramuscular.

The subject of experiment [12] is Enterococcus faecalis. In words: Bactericidal activity against 5 X 10^8 CFU/ml Enterococcus faecalis JH2-2 harboring deletion at AltA, AltB and AltC gene infected in rabbit assessed as bacterial load per gram of vegetation at 50 mg/kg, im administered three times a day starting 48 hrs post-infection measured after 24 hrs by time kill analysis (reference value: 8.69+- 1.19 log10 CFU/g). It counts as functional. Particulars: route intramuscular.

The test system of experiment [13] is Enterococcus faecalis. Put plainly: Bactericidal activity against 5 X 10^6 CFU/ml Enterococcus faecalis JH2-2 harboring deletion at AltA, AltB and AltC gene at 2 ug/ml after 3 hrs by time kill analysis. It counts as functional.
The test system of experiment [14] is Enterococcus faecalis. Put plainly: Bactericidal activity against 5 X 10^6 CFU/ml Enterococcus faecalis JH2-2 at 2 ug/ml after 6 hrs by time kill analysis. It counts as functional.
For experiment [15], the system named is Enterococcus faecalis. In words: Antibacterial activity against Enterococcus faecalis JH2-2 harboring deletion at AltA, AltB and AltC gene assessed as induction of membrane permeabilization at 2 ug/ml after 3 hrs by propidium iodide and Syto9 staining based confocal microscopic analysis. It counts as functional, organism-based.
Experiment [16] concerns Enterococcus faecalis. Put plainly: Bactericidal activity against 5 X 10^6 CFU/ml Enterococcus faecalis JH2-2 at 2 ug/ml after 24 hrs by time kill analysis. It counts as functional.
For experiment [17], the system named is Enterococcus faecalis. In words: Bactericidal activity against 5 X 10^8 CFU/ml Enterococcus faecalis JH2-2 at 2 ug/ml after 24 hrs by time kill analysis. It counts as functional.
Experiment [18] relates to Enterococcus faecalis. In words: Bactericidal activity against 5 X 10^8 CFU/ml Enterococcus faecalis JH2-2 at 2 ug/ml after 3 hrs by time kill analysis. It counts as functional.

Values after ≈ are worked out from the molar mass of the structure shown. Active and inactive are the calls of the source. The rule behind the calls is not given here.

In the case of `CC1(C)S[C@@H]2[C@H](NC(=O)[C@H](N)c3ccc(O)cc3)C(=O)N2[C@H]1C(=O)O` [AMOXICILLIN], the log10CFU/ml is on record as 2.83 in the experiment on Enterococcus faecalis [1]; 4.59 in the experiment with Enterococcus faecalis [3]; 1.45 in the experiment with Enterococcus faecalis [5]; 2.07 in the experiment on Enterococcus faecalis [6]; 2.46 in the experiment on Enterococcus faecalis [7]; 4.44 with Enterococcus faecalis [8]. Besides, the log10CFU/ml turned out to be 0.79 in the experiment on Enterococcus faecalis [10]; 3.15 in the experiment on Enterococcus faecalis [13]; 4.86 with Enterococcus faecalis [14]; 2.48 in the experiment with Enterococcus faecalis [16]; 1.1 in the experiment on Enterococcus faecalis [17]; 1.73 in the experiment on Enterococcus faecalis [18]. The MIC in the experiment on Enterococcus faecalis [2] and against Enterococcus faecalis [4] was 0.5 µg/mL (≈ 1.37 µM) throughout. For the same compound, the outcome in the experiment with Enterococcus faecalis [9] and in the experiment on Enterococcus faecalis [15] was Active. The log10CFU/g was 7.69 in the experiment with Enterococcus faecalis [11] and 7.5 with Enterococcus faecalis [12].

Source of the values: ChEMBL document CHEMBL1687838, “The in vitro contribution of autolysins to bacterial killing elicited by amoxicillin increases with inoculum size in Enterococcus faecalis” (2011).
